From US20240391928A1, “COMPOSITIONS FOR THE TREATMENT OF FOOD AND CHEMICAL ADDICTION AND METHODS OF MAKING AND USING SAME” (Duke University, priority 2021, published 2024)

target: hGHSR1a^WT (Homo sapiens, UniProt Q92847); experiment: Gαq-dependent intracellular Ca2+ mobilization (iCa2+, miAeq); type: cell-based; set-up: HEK293/T (transient); HEK293S Gαq knockout (transient, NanoBiT Gαq); details: 30 minute antagonist pretreatment
Method: Gαq-Dependent Intracellular Ca^2+ Mobilization. […] Cells were split into and seeded into 10 cm dishes without antibiotic selection and grown to confluency overnight. The next morning, cells were serum starved in 10 mL of clear opti-MEM (supplemented with L-glutamine and HEPES; Gibco, Waltham, MA) for 3-4 hours in a 37° C. incubator with 5% CO2. Then, 25 μL of coelenterazine H (NanoLight Technology, Pinetop, AZ) was added to each 10 mL dish and incubated for another 1-2 hours. For antagonist assays, test compounds were either added directly to the media in 10 cm dishes, or cells were collected by gentle washing/trituration and plated onto white, clear-bottomed 96-well plates for 30 minutes—1 hour. Once the coelenterazine H (or antagonist) incubation was complete, cells were harvested from the 10 cm dish by gentle washing/trituration and collected in a 15 mL conical tube. Cell suspensions were then immediately subjected to assay by injecting cells onto a white, clear-bottomed 96-well plate containing 2× test compounds. Luminescence was read without delay and for 10 seconds per well. To control for cell number variability, cells were lysed in 2× lysis buffer (100 mM CaCl2+0.2% Triton-X) immediately following the assay. The max ligand-induced response (Ca^2+ mobilization: net-miAeq) over 10 seconds was normalized by dividing the ligand-induced luminescence counts (L-miAeq) by the ligand-induced luminescence counts (L-MiAeq) plus the luminescence measured upon cell lysis (Lysis-miAeq). Relative, lysis-normalized data were then normalized to the appropriate control/reference condition.
(§1) For experiments with WT and Gt KO HEK293/S cells, […] of hGHSR1a^WT, 10 μg of miAEQ, and 2.5 μg of pcDNA3.1 was transiently transfected into 10 cm dishes and incubated overnight. […] Twenty-four hours later, experiments proceeded in accordance with the procedures described above. To control for any possible kinetic differences in genetically modified cell lines or GHSR1a variants, the average ligand-induced response over 10 seconds was calculated, then normalized by dividing the L-miAeq by the L-miAeq plus the Lysis-miAeq and normalized to the appropriate control/reference condition.

Chain of hGHSR1a^WT (Q92847 whole entry): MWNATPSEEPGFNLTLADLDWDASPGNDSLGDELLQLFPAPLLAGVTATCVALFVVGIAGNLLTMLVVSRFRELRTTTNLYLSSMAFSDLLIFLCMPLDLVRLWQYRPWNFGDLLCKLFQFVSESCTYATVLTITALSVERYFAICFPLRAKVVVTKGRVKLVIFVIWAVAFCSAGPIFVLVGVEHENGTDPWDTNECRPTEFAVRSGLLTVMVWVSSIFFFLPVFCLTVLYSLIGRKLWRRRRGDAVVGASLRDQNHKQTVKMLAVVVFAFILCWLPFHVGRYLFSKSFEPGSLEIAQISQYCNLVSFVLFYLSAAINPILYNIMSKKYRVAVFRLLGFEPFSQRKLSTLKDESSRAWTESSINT

Molecule	inhibition of iCa2+ evoked by N8279, ghrelin or L585
JMV2959 [reference compound]	competitively inhibited
Cc1nc2ccc(Oc3ccc(F)cc3)cc2c(=O)n1C[C@H]1CCCN(C(C)C)C1 [YIL781, reference compound]	competitively inhibited

same assay, conditions: re-synthesized material

Molecule	activity of re-synthesized molecule in words
CCOc1ccc(C2c3c(oc4ccc(C)cc4c3=O)C(=O)N2CCCN(C)C)cc1OC (centres unmarked) [NCGC00141956]	could not be confirmed

same assay, conditions: screening sample

Molecule	potency and efficacy relative to L585 in words
CCOc1ccc(C2c3c(oc4ccc(C)cc4c3=O)C(=O)N2CCCN(C)C)cc1OC (centres unmarked) [NCGC00141956]	sub-μM potency and full efficacy

same assay, conditions: secondary assay of HTS hits; normalized to L585

Molecule	Calcium signaling ECmax (%)
Cc1ccc2oc3c(c(=O)c2c1)C(c1ccccc1F)N(CCCN(C)C)C3=O (centres unmarked) [NCGC00101939]	121%
C[C@@H](O)CNC(C)(C)CC(=O)N[C@@H]1CCc2ccccc2N(Cc2ccc(-c3ccccc3-c3nn[nH]n3)cc2)C1=O [Example L626.585, reference compound]	100%
COc1ccc(C2c3c(oc4ccc(C)cc4c3=O)C(=O)N2CCCN2CCOCC2)cc1OC (centres unmarked) [NCGC00141954]	105%
CCOc1ccc(C2c3c(oc4ccc(C)cc4c3=O)C(=O)N2CCCN(C)C)cc1OC (centres unmarked) [NCGC00141956]	105%
COc1ccc(OC)c(C2c3c(oc4ccc(C)cc4c3=O)C(=O)N2CCCN(C)C)c1 (centres unmarked) [NCGC00136184]	129%
CCCOc1ccc(C2c3c(oc4cc(C)c(C)cc4c3=O)C(=O)N2CCCN(C)C)cc1OCC (centres unmarked) [MLS000115621]	126%
CC(C)c1ccc(C2c3c(oc4ccc(Cl)cc4c3=O)C(=O)N2CCCN2CCOCC2)cc1 (centres unmarked) [NCGC00119774]	75%
Cc1ccc2oc3c(c(=O)c2c1)C(c1ccccc1F)N(CCCN1CCOCC1)C3=O (centres unmarked) [NCGC00101911]	44%
COc1cccc(C2c3c(oc4ccccc4c3=O)C(=O)N2CCCN2CCOCC2)c1 (centres unmarked) [MLS000115599]	71%
CCOc1ccc(C2c3c(oc4ccccc4c3=O)C(=O)N2CCCN2CCOCC2)cc1OCC (centres unmarked) [MLS000115604]	51%
COc1cccc(C2c3c(oc4ccccc4c3=O)C(=O)N2CCCN2CCOCC2)c1 (centres unmarked) [MLS002585710]	56%
Cc1ccc2oc3c(c(=O)c2c1)C(c1cccc(Cl)c1)N(CCCN1CCOCC1)C3=O (centres unmarked) [MLS000103531]	8%
Cc1ccc2oc3c(c(=O)c2c1)C(c1ccc([N+](=O)[O-])cc1)N(CCCN1CCOCC1)C3=O (centres unmarked) [NCGC00119776]	125%
Cc1ccc2oc3c(c(=O)c2c1)C(c1ccc(O)cc1)N(CCCN(C)C)C3=O (centres unmarked) [NCGC00101937]	112%
CSc1ccc(C2c3c(oc4ccccc4c3=O)C(=O)N2CCCN2CCOCC2)cc1 (centres unmarked) [NCGC00101907]	40%
CCOc1ccc(C2c3c(oc4ccc(C)cc4c3=O)C(=O)N2CCCN2CCOCC2)cc1 (centres unmarked) [NCGC00141056]	68%

same assay, conditions: secondary assay of HTS hits; read-out: Calcium signaling EC50

Molecule	EC50
Cc1ccc2oc3c(c(=O)c2c1)C(c1ccccc1F)N(CCCN(C)C)C3=O (centres unmarked) [NCGC00101939]	4900 nM
C[C@@H](O)CNC(C)(C)CC(=O)N[C@@H]1CCc2ccccc2N(Cc2ccc(-c3ccccc3-c3nn[nH]n3)cc2)C1=O [Example L626.585, reference compound]	14.6 nM
COc1ccc(C2c3c(oc4ccc(C)cc4c3=O)C(=O)N2CCCN2CCOCC2)cc1OC (centres unmarked) [NCGC00141954]	714 nM
CCOc1ccc(C2c3c(oc4ccc(C)cc4c3=O)C(=O)N2CCCN(C)C)cc1OC (centres unmarked) [NCGC00141956]	332 nM
COc1ccc(OC)c(C2c3c(oc4ccc(C)cc4c3=O)C(=O)N2CCCN(C)C)c1 (centres unmarked) [NCGC00136184]	13100 nM
CCCOc1ccc(C2c3c(oc4cc(C)c(C)cc4c3=O)C(=O)N2CCCN(C)C)cc1OCC (centres unmarked) [MLS000115621]	2380 nM
CC(C)c1ccc(C2c3c(oc4ccc(Cl)cc4c3=O)C(=O)N2CCCN2CCOCC2)cc1 (centres unmarked) [NCGC00119774]	5620 nM
Cc1ccc2oc3c(c(=O)c2c1)C(c1ccccc1F)N(CCCN1CCOCC1)C3=O (centres unmarked) [NCGC00101911]	2.26 nM
COc1cccc(C2c3c(oc4ccccc4c3=O)C(=O)N2CCCN2CCOCC2)c1 (centres unmarked) [MLS000115599]	20400 nM
CCOc1ccc(C2c3c(oc4ccccc4c3=O)C(=O)N2CCCN2CCOCC2)cc1OCC (centres unmarked) [MLS000115604]	8.04 nM
COc1cccc(C2c3c(oc4ccccc4c3=O)C(=O)N2CCCN2CCOCC2)c1 (centres unmarked) [MLS002585710]	17.6 nM
Cc1ccc2oc3c(c(=O)c2c1)C(c1cccc(Cl)c1)N(CCCN1CCOCC1)C3=O (centres unmarked) [MLS000103531]	0.32 nM
Cc1ccc2oc3c(c(=O)c2c1)C(c1ccc([N+](=O)[O-])cc1)N(CCCN1CCOCC1)C3=O (centres unmarked) [NCGC00119776]	12000 nM
Cc1ccc2oc3c(c(=O)c2c1)C(c1ccc(O)cc1)N(CCCN(C)C)C3=O (centres unmarked) [NCGC00101937]	2780 nM
CSc1ccc(C2c3c(oc4ccccc4c3=O)C(=O)N2CCCN2CCOCC2)cc1 (centres unmarked) [NCGC00101907]	3350 nM
CCOc1ccc(C2c3c(oc4ccc(C)cc4c3=O)C(=O)N2CCCN2CCOCC2)cc1 (centres unmarked) [NCGC00141056]	938 nM

test system: human hGHSR1a-vasopressin receptor 2 tail chimera; experiment: β-arr2^GFP translocation, compound screening (U2OS); type: cell-based; details: secondary assay of HTS hits; normalized to L585

Molecule	Beta-arrestin translocation ECmax (%)
Cc1ccc2oc3c(c(=O)c2c1)C(c1ccccc1F)N(CCCN(C)C)C3=O (centres unmarked) [NCGC00101939]	20%
C[C@@H](O)CNC(C)(C)CC(=O)N[C@@H]1CCc2ccccc2N(Cc2ccc(-c3ccccc3-c3nn[nH]n3)cc2)C1=O [Example L626.585, reference compound]	100%
COc1ccc(C2c3c(oc4ccc(C)cc4c3=O)C(=O)N2CCCN2CCOCC2)cc1OC (centres unmarked) [NCGC00141954]	196%
CCOc1ccc(C2c3c(oc4ccc(C)cc4c3=O)C(=O)N2CCCN(C)C)cc1OC (centres unmarked) [NCGC00141956]	107%
COc1ccc(OC)c(C2c3c(oc4ccc(C)cc4c3=O)C(=O)N2CCCN(C)C)c1 (centres unmarked) [NCGC00136184]	24%
CCCOc1ccc(C2c3c(oc4cc(C)c(C)cc4c3=O)C(=O)N2CCCN(C)C)cc1OCC (centres unmarked) [MLS000115621]	0%
CC(C)c1ccc(C2c3c(oc4ccc(Cl)cc4c3=O)C(=O)N2CCCN2CCOCC2)cc1 (centres unmarked) [NCGC00119774]	163%
CCOc1ccc(C2c3c(oc4ccccc4c3=O)C(=O)N2CCCN2CCOCC2)cc1OCC (centres unmarked) [MLS000115604]	38%
Cc1ccc2oc3c(c(=O)c2c1)C(c1cccc(Cl)c1)N(CCCN1CCOCC1)C3=O (centres unmarked) [MLS000103531]	204%
Cc1ccc2oc3c(c(=O)c2c1)C(c1ccc([N+](=O)[O-])cc1)N(CCCN1CCOCC1)C3=O (centres unmarked) [NCGC00119776]	26%
Cc1ccc2oc3c(c(=O)c2c1)C(c1ccc(O)cc1)N(CCCN(C)C)C3=O (centres unmarked) [NCGC00101937]	49%
CSc1ccc(C2c3c(oc4ccccc4c3=O)C(=O)N2CCCN2CCOCC2)cc1 (centres unmarked) [NCGC00101907]	39%
CCOc1ccc(C2c3c(oc4ccc(C)cc4c3=O)C(=O)N2CCCN2CCOCC2)cc1 (centres unmarked) [NCGC00141056]	19%

same assay, conditions: secondary assay of HTS hits; read-out: Beta-arrestin translocation EC50

Molecule	EC50
Cc1ccc2oc3c(c(=O)c2c1)C(c1ccccc1F)N(CCCN(C)C)C3=O (centres unmarked) [NCGC00101939]	11.6 nM
C[C@@H](O)CNC(C)(C)CC(=O)N[C@@H]1CCc2ccccc2N(Cc2ccc(-c3ccccc3-c3nn[nH]n3)cc2)C1=O [Example L626.585, reference compound]	24 nM
COc1ccc(C2c3c(oc4ccc(C)cc4c3=O)C(=O)N2CCCN2CCOCC2)cc1OC (centres unmarked) [NCGC00141954]	5330 nM
CCOc1ccc(C2c3c(oc4ccc(C)cc4c3=O)C(=O)N2CCCN(C)C)cc1OC (centres unmarked) [NCGC00141956]	2310 nM
COc1ccc(OC)c(C2c3c(oc4ccc(C)cc4c3=O)C(=O)N2CCCN(C)C)c1 (centres unmarked) [NCGC00136184]	2330 nM
CC(C)c1ccc(C2c3c(oc4ccc(Cl)cc4c3=O)C(=O)N2CCCN2CCOCC2)cc1 (centres unmarked) [NCGC00119774]	3050 nM
CCOc1ccc(C2c3c(oc4ccccc4c3=O)C(=O)N2CCCN2CCOCC2)cc1OCC (centres unmarked) [MLS000115604]	2.98 nM
Cc1ccc2oc3c(c(=O)c2c1)C(c1cccc(Cl)c1)N(CCCN1CCOCC1)C3=O (centres unmarked) [MLS000103531]	6300 nM
Cc1ccc2oc3c(c(=O)c2c1)C(c1ccc([N+](=O)[O-])cc1)N(CCCN1CCOCC1)C3=O (centres unmarked) [NCGC00119776]	49.9 nM
Cc1ccc2oc3c(c(=O)c2c1)C(c1ccc(O)cc1)N(CCCN(C)C)C3=O (centres unmarked) [NCGC00101937]	855 nM
CSc1ccc(C2c3c(oc4ccccc4c3=O)C(=O)N2CCCN2CCOCC2)cc1 (centres unmarked) [NCGC00101907]	558 nM
CCOc1ccc(C2c3c(oc4ccc(C)cc4c3=O)C(=O)N2CCCN2CCOCC2)cc1 (centres unmarked) [NCGC00141056]	2.19 nM

target: T1, hGHSR1a^WT in Gαq/11 KO HEK293/S cells (Homo sapiens, UniProt Q92847); experiment: iCa2+ in Gαq/11 KO HEK293/S cells; type: cell-based; details: 10 μM ligand
T1 construct: expressed in transfected cells; SRF-RE reporter); HEK293/S Gαq/11 KO and parental WT (iCa2+)
T1 sequence (Q92847 whole entry): as above
Method: as §1

Molecule	agonist-induced iCa2+ in Gαq/11 KO cells
C[C@@H](O)CNC(C)(C)CC(=O)N[C@@H]1CCc2ccccc2N(Cc2ccc(-c3ccccc3-c3nn[nH]n3)cc2)C1=O [Example L626.585, reference compound]	abolished
